Experimental data from US10750743B2, “Pyridazinone herbicides” (E.I. DU PONT DE NEMOURS AND COMPANY, priority 2015, dated 2020).

Legend:
Format in all cases: in vivo
[1] = system: pigweed (Amaranthus retroflexus); experiment: Test A postemergence application, visual injury rating; conditions: 0 to 100 scale, 0 no effect, 100 complete control
Procedure, shortened: (§1)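 Injury ratings, 0 (no effect) to 100 (complete control), were scored visually versus untreated plants roughly 10 d after treatment under greenhouse conditions. Treatments used surfactant-containing solvent formulations, sprayed onto soil preemergence or onto one- to two-leaf seedlings (2-10 cm) postemergence, grown in a loam-sand mix.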

[2] = system: foxtail, giant (giant foxtail, Setaria faberii); experiment: as above; conditions: 0 to 100 scale, 0 no effect, 100 complete control
Procedure, shortened: as §1

[3] = system: blackgrass (Alopecurus myosuroides); experiment: as above; conditions: 0 to 100 scale, 0 no effect, 100 complete control
Procedure, shortened: as §1

[4] = system: barnyardgrass (Echinochloa crus-galli); experiment: as above; conditions: 0 to 100 scale, 0 no effect, 100 complete control
Procedure, shortened: as §1

[5] = system: ryegrass, It. (Italian ryegrass, Lolium multiflorum); experiment: as above; conditions: 0 to 100 scale, 0 no effect, 100 complete control
Procedure, shortened: as §1

[6] = system: galium (catchweed bedstraw, Galium aparine); experiment: as above; conditions: 0 to 100 scale, 0 no effect, 100 complete control
Procedure, shortened: as §1

[7] = system: corn (Zea mays); experiment: as above; conditions: 0 to 100 scale, 0 no effect, 100 complete control
Procedure, shortened: as §1

[8] = system: kochia (Kochia scoparia); experiment: as above; conditions: 0 to 100 scale, 0 no effect, 100 complete control
Procedure, shortened: as §1

[9] = system: ragweed (common ragweed, Ambrosia elatior); experiment: as above; conditions: 0 to 100 scale, 0 no effect, 100 complete control
Procedure, shortened: as §1

[10] = system: wheat (Triticum aestivum); experiment: as above; conditions: 0 to 100 scale, 0 no effect, 100 complete control
Procedure, shortened: as §1

[11] = system: barnyardgrass (Echinochloa crus-galli); experiment: Test B flooded paddy test, visual rating; conditions: Flood, 250 g ai/ha, applied to paddy water, rated after 13 to 15 d
Procedure, shortened: (§2)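 Ratings use a 0-100 visual scale, where 100 is complete control, and compare treated plants with controls after 13 to 15 d of greenhouse growth. Compound went straight into paddy water kept 3 cm over the soil surface, applied to seedlings at the 2-leaf stage.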

[12] = system: sedge, umbrella (small-flower umbrella sedge, Cyperus difformis); experiment: Test B flooded paddy test, visual rating; conditions: Flood, 250 g ai/ha, applied to paddy water, rated after 13 to 15 d
Procedure, shortened: as §2

[13] = system: rice (Oryza sativa); experiment: Test B flooded paddy test, visual rating; conditions: Flood, 250 g ai/ha, applied to paddy water, rated after 13 to 15 d
Procedure, shortened: as §2

[14] = system: ducksalad (Heteranthera limosa); experiment: Test B flooded paddy test, visual rating; conditions: Flood, 250 g ai/ha, applied to paddy water, rated after 13 to 15 d
Procedure, shortened: as §2

[15] = system: pigweed (Amaranthus retroflexus); experiment: Test A preemergence, directed soil spray, visual injury rating; conditions: 0 is no effect, 100 is complete control
Procedure, shortened: as §1

[16] = system: foxtail, giant (giant foxtail, Setaria faberii); experiment: as above; conditions: 0 is no effect, 100 is complete control
Procedure, shortened: as §1

[17] = system: barnyardgrass (Echinochloa crus-galli); experiment: as above; conditions: 0 is no effect, 100 is complete control
Procedure, shortened: as §1

[18] = system: ryegrass, It. (Italian ryegrass, Lolium multiflorum); experiment: as above; conditions: 0 is no effect, 100 is complete control
Procedure, shortened: as §1

[19] = system: kochia (Kochia scoparia); experiment: as above; conditions: 0 is no effect, 100 is complete control
Procedure, shortened: as §1

[20] = system: ragweed (common ragweed, Ambrosia elatior); experiment: as above; conditions: 0 is no effect, 100 is complete control
Procedure, shortened: as §1

Row | SMILES | Pigweed plant response rating ([1]; 125 g ai/ha) | Foxtail, Giant plant response rating ([2]; 125 g ai/ha) | Blackgrass plant response rating ([3]; 125 g ai/ha) | Barnyardgrass plant response rating ([4]; 125 g ai/ha) | Ryegrass, It. plant response rating ([5]; 125 g ai/ha) | Galium plant response rating ([6]; 125 g ai/ha) | Corn plant response rating ([7]; 125 g ai/ha) | Kochia plant response rating ([8]; 125 g ai/ha) | Ragweed plant response rating ([9]; 125 g ai/ha) | Wheat plant response rating ([10]; 125 g ai/ha) | Barnyardgrass plant response rating (0 to 100 scale, 0 is no effect, 100 is complete control) [11] | Sedge, Umbrella plant response rating (0 to 100 scale, 0 is no effect, 100 is complete control) [12] | Rice plant response rating (0 to 100 scale, 0 is no effect, 100 is complete control) [13] | Ducksalad plant response rating (0 to 100 scale, 0 is no effect, 100 is complete control) [14] | Plant response rating (0 to 100 scale), Pigweed ([15]; 125 g ai/ha) | Plant response rating (0 to 100 scale), Foxtail, Giant ([16]; 125 g ai/ha) | Plant response rating (0 to 100 scale), Barnyardgrass ([17]; 125 g ai/ha) | Plant response rating (0 to 100 scale), Ryegrass, It. ([18]; 125 g ai/ha) | Plant response rating (0 to 100 scale), Kochia ([19]; 125 g ai/ha) | Plant response rating (0 to 100 scale), Ragweed ([20]; 125 g ai/ha) | further results
1 | Cc1ccc2sc(Cl)cc2c1-c1c(O)c(C)nn(C)c1=O [Compound 46] | 90 | 90 | 70 | 30 | 100 | 90 | 20 | 90 | 100 | 20 | 0 | 70 | 0 | 0 | 100 | 80 | 50 | 100 | 80 | 80 | Pigweed plant response rating ([1]; 31 g ai/ha): 90; Foxtail, Giant plant response rating ([2]; 31 g ai/ha): 50; Blackgrass plant response rating ([3]; 31 g ai/ha): 40; Barnyardgrass plant response rating ([4]; 31 g ai/ha): 10; Ryegrass, It. plant response rating ([5]; 31 g ai/ha): 90; Galium plant response rating ([6]; 31 g ai/ha): 90; Corn plant response rating ([7]; 31 g ai/ha): 0; Kochia plant response rating ([8]; 31 g ai/ha): 60; Ragweed plant response rating ([9]; 31 g ai/ha): 90; Wheat plant response rating ([10]; 31 g ai/ha): 0; Plant response rating (0 to 100 scale), Pigweed ([15]; 31 g ai/ha): 100; Plant response rating (0 to 100 scale), Foxtail, Giant ([16]; 31 g ai/ha): 30; Plant response rating (0 to 100 scale), Barnyardgrass ([17]; 31 g ai/ha): 0; Plant response rating (0 to 100 scale), Ryegrass, It. ([18]; 31 g ai/ha): 90; Plant response rating (0 to 100 scale), Kochia ([19]; 31 g ai/ha): 50; Plant response rating (0 to 100 scale), Ragweed ([20]; 31 g ai/ha): 80
2 | COC(=O)Oc1c(C)nn(C)c(=O)c1-c1ccc(Cl)c2ccsc12 [Compound 50] | 70 | 0 | 10 | 10 | 90 | 100 | 0 | 90 | 70 | 0 | 0 | 0 | 0 | 0 | 100 | 10 | 10 | 80 | 20 | 20 | Pigweed plant response rating ([1]; 31 g ai/ha): 60; Foxtail, Giant plant response rating ([2]; 31 g ai/ha): 0; Blackgrass plant response rating ([3]; 31 g ai/ha): 0; Barnyardgrass plant response rating ([4]; 31 g ai/ha): 0; Ryegrass, It. plant response rating ([5]; 31 g ai/ha): 60; Galium plant response rating ([6]; 31 g ai/ha): 100; Corn plant response rating ([7]; 31 g ai/ha): 0; Kochia plant response rating ([8]; 31 g ai/ha): 40; Ragweed plant response rating ([9]; 31 g ai/ha): 10; Wheat plant response rating ([10]; 31 g ai/ha): 0; Plant response rating (0 to 100 scale), Pigweed ([15]; 31 g ai/ha): 0; Plant response rating (0 to 100 scale), Foxtail, Giant ([16]; 31 g ai/ha): 0; Plant response rating (0 to 100 scale), Barnyardgrass ([17]; 31 g ai/ha): 0; Plant response rating (0 to 100 scale), Ryegrass, It. ([18]; 31 g ai/ha): 60; Plant response rating (0 to 100 scale), Kochia ([19]; 31 g ai/ha): 0; Plant response rating (0 to 100 scale), Ragweed ([20]; 31 g ai/ha): 0
3 | CC(=O)Oc1c(C)nn(C)c(=O)c1-c1ccc(Cl)c2ccsc12 [Compound 51] | 60 | 0 | 10 | 10 | 100 | 100 | 0 | 90 | 50 | 0 | 0 | 0 | 0 | 0 | 60 | 0 | 20 | 100 | 20 | 0 | Pigweed plant response rating ([1]; 31 g ai/ha): 50; Foxtail, Giant plant response rating ([2]; 31 g ai/ha): 0; Blackgrass plant response rating ([3]; 31 g ai/ha): 0; Barnyardgrass plant response rating ([4]; 31 g ai/ha): 0; Ryegrass, It. plant response rating ([5]; 31 g ai/ha): 70; Galium plant response rating ([6]; 31 g ai/ha): 100; Corn plant response rating ([7]; 31 g ai/ha): 0; Kochia plant response rating ([8]; 31 g ai/ha): 70; Ragweed plant response rating ([9]; 31 g ai/ha): 0; Wheat plant response rating ([10]; 31 g ai/ha): 0; Plant response rating (0 to 100 scale), Pigweed ([15]; 31 g ai/ha): 0; Plant response rating (0 to 100 scale), Foxtail, Giant ([16]; 31 g ai/ha): 0; Plant response rating (0 to 100 scale), Barnyardgrass ([17]; 31 g ai/ha): 0; Plant response rating (0 to 100 scale), Ryegrass, It. ([18]; 31 g ai/ha): 60; Plant response rating (0 to 100 scale), Kochia ([19]; 31 g ai/ha): 0; Plant response rating (0 to 100 scale), Ragweed ([20]; 31 g ai/ha): 0
4 | CCC(=O)Oc1c(C)nn(C)c(=O)c1-c1ccc(Cl)c2oc(C)cc12 [Compound 52] | 60 | 0 | 0 | 0 | 40 | 90 | 0 | 0 | 20 | 0 | 0 | 0 | 0 | 0 | 70 | 0 | 0 | 50 | 0 | 0 | Pigweed plant response rating ([1]; 500 g ai/ha): 60; Foxtail, Giant plant response rating ([2]; 500 g ai/ha): 0; Blackgrass plant response rating ([3]; 500 g ai/ha): 10; Barnyardgrass plant response rating ([4]; 500 g ai/ha): 10; Ryegrass, It. plant response rating ([5]; 500 g ai/ha): 60; Galium plant response rating ([6]; 500 g ai/ha): 90; Corn plant response rating ([7]; 500 g ai/ha): 0; Kochia plant response rating ([8]; 500 g ai/ha): 20; Ragweed plant response rating ([9]; 500 g ai/ha): 60; Wheat plant response rating ([10]; 500 g ai/ha): 0; Plant response rating (0 to 100 scale), Pigweed ([15]; 500 g ai/ha): 100; Plant response rating (0 to 100 scale), Foxtail, Giant ([16]; 500 g ai/ha): 0; Plant response rating (0 to 100 scale), Barnyardgrass ([17]; 500 g ai/ha): 0; Plant response rating (0 to 100 scale), Ryegrass, It. ([18]; 500 g ai/ha): 70; Plant response rating (0 to 100 scale), Kochia ([19]; 500 g ai/ha): 0; Plant response rating (0 to 100 scale), Ragweed ([20]; 500 g ai/ha): 0
